Assay results published in patent US6525001B1, “Substituted pyrimidine and pyridine herbicides” (Mid-American Commercialization Corporation, priority 1997, dated 2003).

Experiments:
Assay in all cases: Test B pre-/postemergence
Format in all cases: in vivo
Design in all cases: key: 0 is no effect; 10 is complete control
[1] = tested on: momingglory (Ipomoea hederacea)
Outline: (§1)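 Seeds were planted and sprayed preemergence, while plants at 2 to 18 cm (1- to 4-leaf stage) were sprayed postemergence at the same time, with test chemical in a non-phytotoxic solvent mixture containing surfactant. After twelve to sixteen days in a greenhouse, injury was rated visually against untreated controls on a 0–10 scale.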

[2] = tested on: bedstraw (Galium aparine)
Outline: as §1

[3] = tested on: corn (Zea mays)
Outline: as §1

[4] = tested on: sugar beet (Beta vulgaris)
Outline: as §1

[5] = tested on: broadleaf signalgrass (Brachiaria decumbens)
Outline: as §1

[6] = tested on: soybean (Glycine max)
Outline: as §1

[7] = tested on: wheat (Triticum aestivum)
Outline: as §1

[8] = tested on: giant foxtail (Setaria faberii)
Outline: as §1

[9] = tested on: crabgrass (Digitaria sanguinalis)
Outline: as §1

[10] = tested on: blackgrass (Alopecurus myosuroides)
Outline: as §1

[11] = tested on: rape (Brassica napus)
Outline: as §1

[12] = tested on: cocklebur (Xanthium strumarium)
Outline: as §1

[13] = tested on: pigweed (Amaranthus retroflexus)
Outline: as §1

[14] = tested on: velvetleaf (Abutilon theophrasti)
Outline: as §1

[15] = Preemergence, Rate 62 g/ha, scale of 0 to 10

## Cc1cnc(-n2cnc(C(F)(F)F)n2)nc1C(=O)c1cccc(C(F)(F)F)c1 [Compound 67]
[1]; [15]
  Plant response rating, Morningglory: 8
[1]; Rate 62 g/ha, Postemergence
  Morningglory plant response rating: 7
[1]; Rate 125 g/ha, Postemergence
  Morningglory plant response rating: 7
[1]; Rate 125 g/ha, Preemergence
  Plant response rating, Morningglory: 10
[1]; Rate 250 g/ha, Postemergence
  Plant response rating, Morningglory: 10
[1]; Rate 250 g/ha, Preemergence
  Plant response rating, Morningglory: 10
[1]; Rate 500 g/ha, Postemergence
  Plant response rating, Morningglory: 10
[1]; Rate 500 g/ha, Preemergence
  Plant response rating, Morningglory: 10
[2]; [15]
  Plant response rating, Bedstraw: 7
[2]; Rate 62 g/ha, Postemergence
  Bedstraw plant response rating: 9
[2]; Rate 125 g/ha, Postemergence
  Bedstraw plant response rating: 9
[2]; Rate 125 g/ha, Preemergence
  Plant response rating, Bedstraw: 9
[2]; Rate 250 g/ha, Postemergence
  Plant response rating, Bedstraw: 10
[2]; Rate 250 g/ha, Preemergence
  Plant response rating, Bedstraw: 9
[2]; Rate 500 g/ha, Postemergence
  Plant response rating, Bedstraw: 10
[2]; Rate 500 g/ha, Preemergence
  Plant response rating, Bedstraw: 10
[3]; [15]
  Plant response rating, Corn: 4
[3]; Rate 62 g/ha, Postemergence
  Corn plant response rating: 4
[3]; Rate 125 g/ha, Postemergence
  Corn plant response rating: 5
[3]; Rate 125 g/ha, Preemergence
  Plant response rating, Corn: 4
[3]; Rate 250 g/ha, Postemergence
  Plant response rating, Corn: 6
[3]; Rate 250 g/ha, Preemergence
  Plant response rating, Corn: 4
[3]; Rate 500 g/ha, Postemergence
  Plant response rating, Corn: 7
[3]; Rate 500 g/ha, Preemergence
  Plant response rating, Corn: 7
[4]; [15]
  Plant response rating, Sugarbeets: 9
[4]; Rate 62 g/ha, Postemergence
  Sugarbeets plant response rating: 9
[4]; Rate 125 g/ha, Postemergence
  Sugarbeets plant response rating: 9
[4]; Rate 125 g/ha, Preemergence
  Plant response rating, Sugarbeets: 10
[4]; Rate 250 g/ha, Postemergence
  Plant response rating, Sugarbeets: 9
[4]; Rate 250 g/ha, Preemergence
  Plant response rating, Sugarbeets: 10
[4]; Rate 500 g/ha, Postemergence
  Plant response rating, Sugarbeets: 9
[4]; Rate 500 g/ha, Preemergence
  Plant response rating, Sugarbeets: 10
[5]; Rate 62 g/ha, Postemergence
  B. signalgrass plant response rating: 5
[5]; Rate 62 g/ha, Preemergence
  B. signalgrass plant response rating: 8
[5]; Rate 125 g/ha, Postemergence
  B. signalgrass plant response rating: 7
[5]; Rate 125 g/ha, Preemergence
  Plant response rating, B. signalgrass: 9
[5]; Rate 250 g/ha, Postemergence
  Plant response rating, B. signalgrass: 7
[5]; Rate 250 g/ha, Preemergence
  Plant response rating, B. signalgrass: 10
[5]; Rate 500 g/ha, Postemergence
  Plant response rating, B. signalgrass: 9
[5]; Rate 500 g/ha, Preemergence
  Plant response rating, B. signalgrass: 10
[6]; [15]
  Plant response rating, Soybean: 1
[6]; Rate 62 g/ha, Postemergence
  Soybean plant response rating: 7
[6]; Rate 125 g/ha, Postemergence
  Soybean plant response rating: 7
[6]; Rate 125 g/ha, Preemergence
  Plant response rating, Soybean: 2
[6]; Rate 250 g/ha, Postemergence
  Plant response rating, Soybean: 8
[6]; Rate 250 g/ha, Preemergence
  Plant response rating, Soybean: 3
[6]; Rate 500 g/ha, Postemergence
  Plant response rating, Soybean: 8
[6]; Rate 500 g/ha, Preemergence
  Plant response rating, Soybean: 8
[7]; [15]
  Plant response rating, Wheat: 3
[7]; Rate 62 g/ha, Postemergence
  Wheat plant response rating: 3
[7]; Rate 125 g/ha, Postemergence
  Wheat plant response rating: 4
[7]; Rate 125 g/ha, Preemergence
  Plant response rating, Wheat: 3
[7]; Rate 250 g/ha, Postemergence
  Plant response rating, Wheat: 5
[7]; Rate 250 g/ha, Preemergence
  Plant response rating, Wheat: 3
[7]; Rate 500 g/ha, Postemergence
  Plant response rating, Wheat: 6
[7]; Rate 500 g/ha, Preemergence
  Plant response rating, Wheat: 4
[8]; [15]
  Plant response rating, Giant foxtail: 7
[8]; Rate 62 g/ha, Postemergence
  Giant foxtail plant response rating: 5
[8]; Rate 125 g/ha, Postemergence
  Giant foxtail plant response rating: 6
[8]; Rate 125 g/ha, Preemergence
  Plant response rating, Giant foxtail: 9
[8]; Rate 250 g/ha, Postemergence
  Plant response rating, Giant foxtail: 9
[8]; Rate 250 g/ha, Preemergence
  Plant response rating, Giant foxtail: 10
[8]; Rate 500 g/ha, Postemergence
  Plant response rating, Giant foxtail: 9
[8]; Rate 500 g/ha, Preemergence
  Plant response rating, Giant foxtail: 10
[9]; [15]
  Plant response rating, Crabgrass: 6
[9]; Rate 62 g/ha, Postemergence
  Crabgrass plant response rating: 7
[9]; Rate 125 g/ha, Postemergence
  Crabgrass plant response rating: 9
[9]; Rate 125 g/ha, Preemergence
  Plant response rating, Crabgrass: 9
[9]; Rate 250 g/ha, Postemergence
  Plant response rating, Crabgrass: 10
[9]; Rate 250 g/ha, Preemergence
  Plant response rating, Crabgrass: 10
[9]; Rate 500 g/ha, Postemergence
  Plant response rating, Crabgrass: 10
[9]; Rate 500 g/ha, Preemergence
  Plant response rating, Crabgrass: 10
[10]; [15]
  Plant response rating, Blackgrass: 3
[10]; Rate 62 g/ha, Postemergence
  Blackgrass plant response rating: 5
[10]; Rate 125 g/ha, Postemergence
  Blackgrass plant response rating: 8
[10]; Rate 125 g/ha, Preemergence
  Plant response rating, Blackgrass: 4
[10]; Rate 250 g/ha, Postemergence
  Plant response rating, Blackgrass: 9
[10]; Rate 250 g/ha, Preemergence
  Plant response rating, Blackgrass: 8
[10]; Rate 500 g/ha, Postemergence
  Plant response rating, Blackgrass: 10
[10]; Rate 500 g/ha, Preemergence
  Plant response rating, Blackgrass: 9
[11]; [15]
  Plant response rating, Rape: 7
[11]; Rate 62 g/ha, Postemergence
  Rape plant response rating: 6
[11]; Rate 125 g/ha, Postemergence
  Rape plant response rating: 8
[11]; Rate 125 g/ha, Preemergence
  Plant response rating, Rape: 9
[11]; Rate 250 g/ha, Postemergence
  Plant response rating, Rape: 8
[11]; Rate 250 g/ha, Preemergence
  Plant response rating, Rape: 10
[11]; Rate 500 g/ha, Postemergence
  Plant response rating, Rape: 9
[11]; Rate 500 g/ha, Preemergence
  Plant response rating, Rape: 10
[12]; Rate 62 g/ha, Postemergence
  Cocklebur plant response rating: 7
[12]; Rate 125 g/ha, Postemergence
  Cocklebur plant response rating: 7
[12]; Rate 250 g/ha, Postemergence
  Plant response rating, Cocklebur: 8
[12]; Rate 250 g/ha, Preemergence
  Plant response rating, Cocklebur: 2
[12]; Rate 500 g/ha, Postemergence
  Plant response rating, Cocklebur: 9
[12]; Rate 500 g/ha, Preemergence
  Plant response rating, Cocklebur: 5
[13]; [15]
  Plant response rating, Redroot pigweed: 9
[13]; Rate 62 g/ha, Postemergence
  Redroot pigweed plant response rating: 9
[13]; Rate 125 g/ha, Postemergence
  Redroot pigweed plant response rating: 10
[13]; Rate 125 g/ha, Preemergence
  Plant response rating, Redroot pigweed: 10
[13]; Rate 250 g/ha, Postemergence
  Plant response rating, Redroot pigweed: 10
[13]; Rate 250 g/ha, Preemergence
  Plant response rating, Redroot pigweed: 10
[13]; Rate 500 g/ha, Postemergence
  Plant response rating, Redroot pigweed: 10
[13]; Rate 500 g/ha, Preemergence
  Plant response rating, Redroot pigweed: 10
[14]; [15]
  Plant response rating, Velvetleaf: 8
[14]; Rate 62 g/ha, Postemergence
  Velvetleaf plant response rating: 8
[14]; Rate 125 g/ha, Postemergence
  Velvetleaf plant response rating: 8
[14]; Rate 125 g/ha, Preemergence
  Plant response rating, Velvetleaf: 9
[14]; Rate 250 g/ha, Postemergence
  Plant response rating, Velvetleaf: 8
[14]; Rate 250 g/ha, Preemergence
  Plant response rating, Velvetleaf: 10
[14]; Rate 500 g/ha, Postemergence
  Plant response rating, Velvetleaf: 8
[14]; Rate 500 g/ha, Preemergence
  Plant response rating, Velvetleaf: 10
